Active and inactive are the calls of the source. The rule behind the calls is not given here.
Key:
[1] = system: Trichoplusia ni; assay: Insecticidal activity against Trichoplusia ni (cabbage looper) assessed as mortality after 2 days by cabbage leaf dip bioassay; format: functional, organism-based
[2] = system: Trichoplusia ni; assay: Insecticidal activity against Trichoplusia ni (cabbage looper) assessed as mortality after 3 days by cabbage leaf dip bioassay; format: functional; set-up: concentration or dose not given beside the values
[3] = system: Trichoplusia ni; assay: Insecticidal activity against Trichoplusia ni (cabbage looper) assessed as mortality after 6 hr by cabbage leaf dip bioassay; format: functional, organism-based
[4] = Toxicity in Mus musculus ICR (mouse); format: organism-based; settings: in vivo

CC[C@H](C)[C@H]1O[C@]2(C=C[C@@H]1C)C[C@@H]1C[C@@H](C/C=C(\C)[C@@H](O[C@H]3C[C@H](OC)[C@@H](O[C@@H]4C[C@@H](OC)[C@@H](NC)[C@@H](C)O4)[C@H](C)O3)[C@@H](C)/C=C/C=C3\CO[C@@H]4[C@H](O)C(C)=C[C@@H](C(=O)O1)[C@]34O)O2.O=C(O)c1ccccc1
Activity [1]: Active
mortality [2]: 90%

CC[C@H](C)[C@H]1O[C@]2(C=C[C@@H]1C)C[C@@H]1C[C@@H](C/C=C(\C)[C@@H](O[C@H]3C[C@H](OC)[C@@H](O[C@H]4O[C@@H](C)[C@@H](O)[C@@H](O)[C@@H]4O)[C@H](C)O3)[C@@H](C)/C=C/C=C3\CO[C@@H]4[C@H](O)C(C)=C[C@@H](C(=O)O1)[C@]34O)O2
mortality [2]: 37%

CC[C@H](C)[C@H]1O[C@]2(C=C[C@@H]1C)C[C@@H]1C[C@@H](C/C=C(\C)[C@@H](O[C@H]3C[C@H](OC)[C@@H](O[C@@H]4C[C@@](C)(OC)[C@@H](OC(C)=O)[C@H](C)O4)[C@H](C)O3)[C@@H](C)/C=C/C=C3\CO[C@@H]4[C@H](O)C(C)=C[C@@H](C(=O)O1)[C@]34O)O2
mortality [2]: 72%

CC[C@H](C)[C@H]1O[C@]2(C=C[C@@H]1C)C[C@@H]1C[C@@H](C/C=C(\C)[C@@H](O[C@H]3C[C@H](OC)[C@@H](O[C@H]4O[C@@H](C)[C@@H](OC)[C@@H](OC)[C@@H]4OC)[C@H](C)O3)[C@@H](C)/C=C/C=C3\CO[C@@H]4[C@H](O)C(C)=C[C@@H](C(=O)O1)[C@]34O)O2
Activity [3]: Active
LD50 [4]: 87.5 mg/kg
mortality [2]: 93%

CC[C@H](C)[C@H]1O[C@]2(C=C[C@@H]1C)C[C@@H]1C[C@@H](C/C=C(\C)[C@@H](O[C@H]3C[C@H](OC)[C@@H](O[C@@H]4C[C@@](C)(OC)[C@@H](OC)[C@H](C)O4)[C@H](C)O3)[C@@H](C)/C=C/C=C3\CO[C@@H]4[C@H](O)C(C)=C[C@@H](C(=O)O1)[C@]34O)O2
mortality [2]: 85%

CC[C@H](C)[C@H]1O[C@]2(C=C[C@@H]1C)C[C@@H]1C[C@@H](C/C=C(\C)[C@@H](O[C@H]3C[C@H](OC)[C@@H](O[C@H]4C[C@H](OC)[C@@H](O)[C@H](C)O4)[C@H](C)O3)[C@@H](C)/C=C/C=C3\CO[C@@H]4[C@H](O)C(C)=C[C@@H](C(=O)O1)[C@]34O)O2 [ABAMECTIN COMPONENT B1A]
Activity [1]: Active
mortality [2]: 53%

CC[C@H](C)[C@H]1O[C@]2(C=C[C@@H]1C)C[C@@H]1C[C@@H](C/C=C(\C)[C@@H](O[C@H]3C[C@H](OC)[C@@H](O[C@@H]4C[C@@](C)(O)[C@@H](OC(C)=O)[C@H](C)O4)[C@H](C)O3)[C@@H](C)/C=C/C=C3\CO[C@@H]4[C@H](O)C(C)=C[C@@H](C(=O)O1)[C@]34O)O2
mortality [2]: 61%

CC[C@H](C)[C@H]1O[C@]2(C=C[C@@H]1C)C[C@@H]1C[C@@H](C/C=C(\C)[C@@H](O[C@H]3C[C@H](OC)[C@@H](O[C@@H]4C[C@@](C)(OC)[C@@H](O)[C@H](C)O4)[C@H](C)O3)[C@@H](C)/C=C/C=C3\CO[C@@H]4[C@H](O)C(C)=C[C@@H](C(=O)O1)[C@]34O)O2
Activity [3]: Active
LD50 [4]: 17.5 mg/kg
mortality [2]: 93%
